Reference: US20030229132A1, “Small molecule modulators of apoptosis” (priority 2002, published 2003)

System: cell lines from the NCI cancer panel
Test: NCI cancer panel, cell growth by sulforhodamine B staining
Assay type: cell-based
Description: Cells were exposed to serial dilutions of compound 2 continuously for 6 days, and cell growth relative to controls was determined by staining with sulforhodamine B. Some cell lines were excluded for clarity. (A) Dose-response plots for leukemia, melanoma, renal cancer and CNS cancer. (B) Dose-response plots for lung, breast and colon cancers.
Compounds 2-5 additionally were submitted to the National Cancer Institute for screening in the cancer panel. […] Compound 2 exerted a cytostatic effect on the majority of cell lines tested, inhibiting cell growth by 50-100% at 10 μM in 40 out of 48 cell lines tested. In addition, compound 2 exerted a cytotoxic effect, reducing the cell numbers by 10-50% in four cell lines and by 50-100% in eight cell lines from the initial levels when tested at 10 μM. […] Representative dose-response plots for lung, breast and colon cancer cell lines are also shown (FIG. 4B). Results for ovarian and prostate cancer were similar.

O=C1C(=O)N(Cc2ccc(Cl)c(Cl)c2)c2ccccc21 [Compound 2]
inhibition of cell growth (cytostatic effect) (10 μM, in 40 out of 48 cell lines tested, 6 days): 50-100%
reduction of cell numbers from the initial levels (cytotoxic effect) (10 μM, in eight cell lines): 50-100%
reduction of cell numbers from the initial levels (cytotoxic effect) (10 μM, in four cell lines): 10-50%
cytotoxicity (100 μM, virtually all cell lines): 100%
sensitivity relative to the mean response of the panel (CCRF-CEM, MOLT-4, LOX IMVI, SN 12C, SF-295): 5-10 fold
overall activity in the cancer panel (among compounds 2-5): most active overall
